In patent US6863647B2, “2-Ureido-thiazole derivatives, process for their preparation, and their use as antitumor agents” (Pharmacia & Upjohn S.p.A., priority 1998, dated 2005):

Biological target: cdk2/cyclin A complex (Homo sapiens, UniProt P24941)
Assay: inhibition assay of cdk2/Cyclin A activity (MultiScreen-PH phosphocellulose filter, 33P-labelled histone H1)
Type: biochemical
Conditions: histone H1 substrate, 25 μM ATP; inhibitor 0.0045 to 10 μM; read-out: inhibiting activity towards the cdk2/cyclin A complex (IC50)
Experimental: The inhibiting activity of putative cdk/cyclin inhibitors and the potency of selected compounds was determined through a method of assay based on the use of the MultiScreen-PH 96 well plate (Millipore), in which a phosphocellulose filter paper was placed at each well bottom allowing binding of positive charged substrate after a washing/filtration step.
When a radioactivity labelled phosphate moiety was transferred by the ser/threo kinase to the filter-bound histone, light emitted was measured in a scintillation counter.
The inhibition assay of cdk2/Cyclin A activity was performed according to the following protocol: • Kinase reaction: 1.5 μM histone H1 substrate, 25 μM ATP (0.5 μCi P^33γ-ATF), 30 ng Cyclin A/cdk2 complex, 10 μM inhibitor in a final volume of 100 μl buffer (TRIS HCl 10 mM pH 7.5, MgCl2 10 mM, 7.5 mM DTT) were added to each well of a 96 U bottom well plate. […] Plates were then washed 3 times with 150 μl/well PBS Ca^++/Mg^++ free and filtered by MultiScreen filtration system. • Detection: filters were allowed to dry at 37° C., then 100 μl/well scintillant were added and ^33P labelled histone H1 was detected by radioactivity counting in the Top-Count instrument. • Results: data were analysed and expressed as % inhibition referred to total activity of enzyme (=100%). […]

IC50: 560 nM
Compound: Cc1cc(C)cc(NC(=O)Nc2ncc(C(C)C)s2)c1 [N-(5-isopropyl-1,3-thiazol-2-yl)-N′-(3,5-dimethylphenyl)urea]
